The values below come from publication PMC10313671, “Accelerating the prediction and discovery of peptide hydrogels with human-in-the-loop” (Nature Communications, 2023).

Where a SMILES comes first, the peptide text is derived from it.

The nature of data set [1]: Peptide hydrogel formation, vial-inverting method. In kind it is physicochemical. On the set-up: key to EXP / GELATION: 0: no hydrogel; 1: hydrogel. To be noted: for State: ultrasonication, standing 48 h; for State / GELATION: vial-inverting method; for Concentration: concentration at which the state was recorded: lowest of 30, 60, 90, 120 mM that gave a gel, 120 mM for non-gelating peptides; for GELATION: 1 = hydrogel, 0 = no hydrogel. The procedure: After validating the efficiency of APHC in predicting tetrapeptide hydrogels, we detailed the phase state of 165 synthesized tetrapeptides and the observed assembly behavior in an aqueous solution.
This work defines hydrogel formation as a self-supporting, non-flowing mixture of water and hydrogelator by the vial-inverting method. All purified tetrapeptides were dissolved in ultrapure water (to form a 30 mM solution initially), followed by the stepwise addition of 1 N NaOH solution to adjust the overall aqueous pH to 6.5–8.5. Meanwhile, a short-term ultrasonication treatment was applied after each pH adjustment to facilitate peptide solubilization and speed up peptide self-assembly. […] The mixture was allowed to stand in for another 48 h for complete hydrogelation. Upon the absence of gelation phenomenon during the aforementioned loops, we increased the peptide concentration (60 mM, 90 mM, and 120 mM were selected) and re-started such gelation operation loop to explore their gelation feasibility.

The nature of data set [2]: Transmission electron microscope (negative staining) of peptide assemblies. To be noted: for Morphology: TEM, negative staining with uranyl acetate, 120 kV.
Procedure: We used the negative staining technique to observe the morphologies formed by peptides. A micropipette was used to load 10 μL of sample solution to a carbon-coated copper grid, and we used a piece of filter paper to remove the excess solution. After rinsing the grid with the deionized water, we used uranyl acetate to stain the sample for 1 minute and then rinsed the grid with deionized water again.
The mark [3] stands for this setting: 120 mM peptide (highest tested) in ultrapure water, pH 6.5-8.5 (1 N NaOH), precipitate, sol, suspension = no gel.
Setting [4] is: 30 mM peptide in ultrapure water, pH adjusted to 6.5-8.5 with 1 N NaOH, concentration raised 30/60/90/120 mM until gelation.
[5] abbreviates: 60 mM peptide in ultrapure water, pH 6.5-8.5 (1 N NaOH), no gel at 30 mM.

Regarding `CC[C@H](C)[C@H](NC(=O)[C@H](Cc1ccc(O)cc1)NC(=O)[C@H](Cc1ccc(O)cc1)NC(=O)[C@@H]1CCCN1)C(=O)O` [PYYI] (H-PYYI-OH), in data set [1] (setting [3]), the State result is reported as “sol”. In addition, in data set [1], the “Concentration” value was determined as 120000 µM. The same compound came in with a GELATION in data set [1] (peptide concentration 120 mM) of 0. In addition, in data set [2] (line of the table gives 120 mM), the Morphology entry is given as “aggregates”.
`CSCC[C@H](NC(=O)[C@@H](N)CCSC)C(=O)N[C@H](C(=O)N[C@H](C(=O)O)C(C)C)C(C)C` [MMVV] (H-MMVV-OH): the State result in data set [1] (setting [4]) is “gel”. Further, the “Concentration” value in data set [1] was 30000 µM. Also, in data set [1] (peptide concentration 30 mM), the GELATION stood at 1. Also, in data set [2] (line of the table gives 30 mM), the Morphology entry is “particle”.
As for `NCCCC[C@H](NC(=O)[C@@H](N)Cc1ccccc1)C(=O)N[C@@H](Cc1ccccc1)C(=O)N[C@@H](Cc1ccccc1)C(=O)O` [FKFF] (H-FKFF-OH), the State entry in data set [1] (setting [5]) is “gel”. The “Concentration” value in data set [1] was 60000 µM. This compound also showed a GELATION in data set [1] (peptide concentration 60 mM) of 1. Also, in data set [2] (line of the table gives 60 mM), the Morphology result is listed as “sheet”.
Turning to `CC(C)C[C@H](NC(=O)[C@@H](NC(=O)CN)C(C)C)C(=O)N[C@@H](Cc1ccccc1)C(=O)O` [GVLF] (H-GVLF-OH), the State result in data set [1] (setting [5]) was “gel”. For the same compound, in data set [1], the “Concentration” value turned out to be 60000 µM. In data set [1] (peptide concentration 60 mM), this compound showed a GELATION of 1. Moreover, the Morphology result in data set [2] (line of the table gives 60 mM) is “rod”.
Regarding `CC(C)C[C@H](NC(=O)[C@@H](N)CC(C)C)C(=O)N[C@@H](CCCNC(=N)N)C(=O)N[C@@H](CCC(N)=O)C(=O)O` [LLRQ] (H-LLRQ-OH), in data set [1] (setting [3]), the State result was “suspension”. Further, the “Concentration” value in data set [1] was determined as 120000 µM. The same compound came in with a GELATION in data set [1] (peptide concentration 120 mM) of 0. Further, the Morphology entry in data set [2] (line of the table gives 120 mM) is “aggregates”.
As for `CSCC[C@H](NC(=O)[C@H](CC(N)=O)NC(=O)[C@@H](NC(=O)CN)C(C)C)C(=O)O` [GVNM] (H-GVNM-OH), the State result in data set [1] (setting [3]) is on record as “suspension”. In addition, the “Concentration” value in data set [1] worked out at 120000 µM. The GELATION in data set [1] (peptide concentration 120 mM) is 0. Further, in data set [2] (line of the table gives 120 mM), the Morphology result is “sphere”.
The matching figures for `CC[C@H](C)[C@H](NC(=O)[C@H](Cc1ccccc1)NC(=O)[C@@H](NC(=O)[C@@H](N)Cc1c[nH]c2ccccc12)C(C)C)C(=O)O` [WVFI] (H-WVFI-OH): “suspension”, 120000 µM, 0 and “aggregates”.
As to `CC(C)C[C@H](N)C(=O)N[C@@H](Cc1c[nH]c2ccccc12)C(=O)N[C@@H](Cc1ccccc1)C(=O)N[C@@H](Cc1ccccc1)C(=O)O` [LWFF] (H-LWFF-OH), the State result in data set [1] (setting [4]) is listed as “gel”. Besides, the “Concentration” value in data set [1] came to 30000 µM. This compound also gave a GELATION in data set [1] (peptide concentration 30 mM) of 1. Also, in data set [2] (line of the table gives 30 mM), the Morphology entry is reported as “hybrid(sheet+fibre)”.
For the compound `C[C@@H](O)[C@H](NC(=O)[C@@H](N)CO)C(=O)N[C@@H](Cc1ccc(O)cc1)C(=O)N[C@@H](Cc1ccccc1)C(=O)O` [STYF] (H-STYF-OH), the State entry in data set [1] (setting [5]) is “gel”. The “Concentration” value in data set [1] was 60000 µM. This compound gave a GELATION in data set [1] (peptide concentration 60 mM) of 1. Besides, the Morphology result in data set [2] (line of the table gives 60 mM) is “hybrid(sphere+fibre)”.
As for `O=C(CNC(=O)[C@@H]1CCCN1)N[C@@H](Cc1c[nH]c2ccccc12)C(=O)N[C@@H](Cc1c[nH]c2ccccc12)C(=O)O` [PGWW] (H-PGWW-OH), the State result in data set [1] (setting [3]) is on record as “sol”. The “Concentration” value in data set [1] is 120000 µM. Moreover, in data set [1] (peptide concentration 120 mM), the GELATION was 0. The Morphology result in data set [2] (line of the table gives 120 mM) was “aggregates”. In addition, the “morphology by TEM (in words)” value in data set [2] (aqueous solution or hydrogel, negative staining) is “aggregates with different sizes”.
Consider `N[C@@H](CS)C(=O)N[C@@H](Cc1c[nH]c2ccccc12)C(=O)N[C@@H](Cc1c[nH]cn1)C(=O)N[C@@H](Cc1ccc(O)cc1)C(=O)O` [CWHY] (H-CWHY-OH), for which the State entry in data set [1] (setting [3]) was “gel”. The “Concentration” value in data set [1] was determined as 120000 µM. In data set [1] (peptide concentration 120 mM), the GELATION is 1. In addition, the Morphology entry in data set [2] (line of the table gives 120 mM) was “aggregates”.
Turning to `O=C(O)[C@H](Cc1c[nH]c2ccccc12)NC(=O)[C@H](Cc1ccc(O)cc1)NC(=O)[C@H](Cc1c[nH]c2ccccc12)NC(=O)[C@@H]1CCCN1` [PWYW] (H-PWYW-OH), in data set [1] (setting [3]), the State entry is reported as “gel”. Further, the “Concentration” value in data set [1] was determined as 120000 µM. Also, the GELATION in data set [1] (peptide concentration 120 mM) came out at 1. Also, the Morphology entry in data set [2] (line of the table gives 120 mM) was “aggregates”.
